# Test results reported in US20170306042A1, “IMMUNOGENIC MODULATION BY ENDOCRINE DEPRIVATION THERAPY IMPROVES SENSITIVITY OF TUMOR CELLS TO IMMUNE MEDIATED LYSIS” (The United States of America, as represented by the …, priority 2014, published 2017).
# What was measured:
# Type in all cases: cell-based, human
# LNCaP cells = assay: Apoptosis PCR array (96 genes) in LNCaP cells
# Experimental: The properties of ADT that induce immunogenic modulation and sensitize prostate tumor cells to immune-mediated attack are novel and have not been previously described. It was hypothesized that modulation of apoptotic genes might be part of the mechanism of action of ADT-induced CTL sensitization. […] In particular, gene expression was assessed using an apoptosis PCR array (SA Biosciences, Valencia, Calif.) as per the manufacturer's instructions. RT-PCR was performed on the 7300 Real-Time PCR System (Applied Biosystems, Carlsbad, Calif.). Where indicated, values were calculated as expression relative to GAPDH, as previously described (Ardiani et al., Cancer Res., 74(7): 1945-1957 (2014))
# ZR75-1 cells = assay: CTL assay after tamoxifen, ZR75-1 targets; settings: ZR75-1 (ER+); 1 μM, 72 hours; CEA-specific or MUC-1 specific CTLs; E:T 30:1
# Experimental: (§1) To determine sensitivity to immune-mediated killing, breast cancer cells treated with vehicle or 1 μM tamoxifen for 72 hours and then used as targets in a CTL assay using CEA-specific or MUC-1 specific CTLs as effector cells at an E:T ratio of 30:1.
# HCC1806 cells = assay: CTL assay after tamoxifen, HCC1806 targets; settings: HCC1806 (ER−); 1 μM, 72 hours; E:T 30:1
# Experimental: as §1
# BT549 cells = assay: CTL assay after tamoxifen, BT549 targets; settings: BT549 (ER−); 1 μM, 72 hours; E:T 30:1
# Experimental: as §1
# [1] = test system: ZR75-1, MCF, BT549 and HCC1806 cells; assay: Viability of breast cancer cells treated with tamoxifen; settings: 1 μM
# Experimental: ZR75-1 (ER+PR+Her2+), MCF (ER+PR+Her2−), BT549 (ER−PR−Her2−), and HCC1806 (ER−PR−Her2−) cells were treated with vehicle or 1 μM tamoxifen to replicate intratumoral concentrations. FIGS. 12A-12D illustrate the fold increase in cell number following treatment. Viability never diminished more than 10% at any given time point.
# MCF-7 cells = assay: CTL assay after tamoxifen, MCF-7 targets; settings: MCF-7 (ER+); 1 μM, 72 hours; CEA-specific or MUC-1 specific CTLs; E:T 30:1
# Experimental: as §1
# [2] = apoptosis PCR array, negative = down-regulated
SMILES,number of 96 apoptosis genes down-regulated greater than 2-fold (LNCaP cells; RT-PCR array),number of 96 apoptosis genes up-regulated greater than 2-fold (LNCaP cells; RT-PCR array),CASP1 (Caspase 1) gene expression change (LNCaP cells; [2]) [fold],CASP5 gene expression change (LNCaP cells; [2]) [fold],CASP8 gene expression change (LNCaP cells; [2]) [fold],CD27 gene expression change (LNCaP cells; [2]) [fold],DAPK1 gene expression change (LNCaP cells; [2]) [fold],HRK gene expression change (LNCaP cells; [2]) [fold],NAIP gene expression change (LNCaP cells; [2]) [fold],TNFRSF25 (DR3) gene expression change (LNCaP cells; [2]) [fold],TNFSF8 gene expression change (LNCaP cells; [2]) [fold],NAIP down-regulated (LNCaP cells; rounded from Table 1) [fold],CTL-mediated lysis (ZR75-1 cells),CEA-specific killing (HCC1806 cells),CEA-specific killing (BT549 cells),diminution of viability at any given time point [1] [%],CTL-mediated lysis (MCF-7 cells)
C[C@]12CC[C@H](O)CC1=CC[C@@H]1[C@@H]2CC[C@]2(C)C(c3cccnc3)=CC[C@@H]12 [abiraterone],14,11,−4.05,−4.22,−2.25,−3.50,−13.73,−8.57,−4.72,−7.41,−7.51,5,,,,,
CC/C(=C(\c1ccccc1)c1ccc(OCCN(C)C)cc1)c1ccccc1 [tamoxifen],,,,,,,,,,,,,improved the CTL-mediated lysis,improved CEA-specific killing,improved CEA-specific killing,≤ 10,improved the CTL-mediated lysis
